Values of other authors as cited in patent US7759335B2, “Cannabinoid receptor antagonists/inverse agonists useful for treating metabolic disorders, including obesity and diabetes” (Jenrm Discovery, Inc., priority 2008, dated 2010).

Conditions: patients with type 2 diabetes not treated with other anti-diabetic medications; after six months of treatment; baseline value 7.9; placebo reduction 0.3%

Cc1c(C(=O)NN2CCCCC2)nn(-c2ccc(Cl)cc2Cl)c1-c1ccc(Cl)cc1 [rimonabant]
HbA1c levels lowered: 0.8%
